The record followed here is patent EP1157000B1 (Warner-Lambert Company LLC, priority 1999, dated 2001).

As a reminder, the IC50 is the point on the concentration scale where inhibition reaches its midpoint.

Structures can show the parent of a compound that is named as a salt.

The target of one test is T1, rBCATc (Rattus norvegicus, UniProt P54690).
T1 construct: The supernatant was dialyzed with at least three changes of dialysis buffer; from tissue; host or cells: rat brain (high-speed supernatant of homogenate, dialyzed)
T1 sequence (P54690 1-411): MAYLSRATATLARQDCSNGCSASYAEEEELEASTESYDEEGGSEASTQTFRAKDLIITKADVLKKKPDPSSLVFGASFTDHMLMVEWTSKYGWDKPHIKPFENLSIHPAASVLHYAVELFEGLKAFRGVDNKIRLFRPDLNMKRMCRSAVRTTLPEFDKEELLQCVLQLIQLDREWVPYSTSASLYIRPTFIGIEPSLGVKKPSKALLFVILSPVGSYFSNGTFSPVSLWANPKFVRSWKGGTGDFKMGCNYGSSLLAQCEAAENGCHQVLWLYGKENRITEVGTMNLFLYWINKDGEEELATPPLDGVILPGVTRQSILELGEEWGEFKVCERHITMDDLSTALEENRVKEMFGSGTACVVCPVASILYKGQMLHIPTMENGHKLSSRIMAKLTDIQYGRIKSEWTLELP
Put plainly: Assay of BCAT ([14C] L-leucine transamination, rat brain supernatant enzyme). Type of test: biochemical. The following applies: 25 µM [14C] L-leucine, 10 mM 2-oxoglutarate, pH 8.3, 10 min, 22 °C; read-out: rBCATc IC50. The procedure:
Enzyme preparation: Frozen rat brains were thawed on ice and minced into fine pieces. […] The samples were homogenized in Potters homogenizer (B. Bran Biotech International) at 500 rpm for ten strokes, followed by additional ten strokes at 800 rpm. The homogenates were centrifuged in Beckman J2-M1 centrifuge with rotor JA-20 at 19, 000 rpm for 1 hr. […] The resulting enzyme was stored at -80 °C for further assays.
The solutions for the reaction mixture were made in 10-fold concentrations. After 10 min incubation at room temperature (22 °C), the reaction was stopped by adding 100 µl of 15 mM p-nitrophenyl hydrazine in 2 M HCL. After a few minutes, 1 mL of a toluene-based scintillation liquid (4.5 g of PPO and 0.5 g ofbis-MSB in 1 liter of toluene) was added, the tube was capped and mixed thoroughly with a Vortex mixer. […] Six hundreds µl of organic layer from each tube was placed into scintillation vials, followed by adding 10 ml of scintillation cocktail for counting.
On to `C[C@@H]1CCC(CN)(CC(=O)O)C1` (mixture of isomers) [Example 5, (cis/trans)-(3R)-(1-Aminomethyl-3-methyl-cyclopentyl)-acetic acid hydrochloride], for which the IC50 came to 2930 µM.
The same measure, in the same setting: the result for `C[C@@H]1CC(CN)(CC(=O)O)C[C@H]1C` (racemic) [Example 4, (±)-(trans)-(1-Aminomethyl-3,4-dimethyl-cyclopentyl)-acetic acid hydrochloride] reads 2510 µM; that for `CCNCC1(CC(=O)O)C[C@H](C)C[C@H](C)C1` (stereo in doubt) [Example 59, ((3R, 5S)-1-Ethylaminomethyl-3,5-dimethyl-cyclohexyl)-acetic acid; hydrochloride salt], 3370 µM; that for `CCCNCC1(CC(=O)O)C[C@H](C)C[C@H](C)C1` (stereo in doubt) [Example 62, ((3R, 5S)-3,5-Dimethyl-1-propylaminomethyl-cyclohexyl)-acetic acid; hydrochloride salt], 4220 µM.
Regarding `C[C@@H]1CCC[C@](CN)(CC(=O)O)C1` [Example 1, trans-(1R,3R)(1-Aminomethyl-3-methyl-cyclohexyl)-acetic acid hydrochloride], the IC50 turned out to be 146 µM.
Turning to `C[C@@H]1CC(CN)(CC(=O)O)C[C@H]1C` [Example 6, (+)-(trans)-(1-Aminomethyl-3,4-dimethyl-cyclopentyl)-acetic acid hydrochloride], the IC50 was 2620 µM.
Take `C[C@H]1CC(CN)(CC(=O)O)C[C@@H]1C` [Example 7, (+)-(trans)-(1-Aminomethyl-3,4-dimethyl-cyclopentyl)-acetic acid hydrochloride]: the half-inhibitory concentration (IC50) came out at 2170 µM.
In the case of `C[C@@H]1C[C@H](C)C[C@](CN)(CC(=O)O)C1` [Example 8, 1α,3β,5β-(1-Aminomethyl-3,5-dimethyl-cyclohexyl)-acetic acid hydrochloride], the IC50 is 74 µM.
On the same count and under the same terms, the result for `CCCNC[C@@]1(CC(=O)O)C[C@H](C)C[C@H](C)C1` [Example 9, 1α,3β,5β-(3,5-Dimethyl-1-propylaminomethyl-cyclohexyl)-acetic acid; hydrochloride salt] reads 120 µM; that for `CCNCC1(CC(=O)O)CC(C)CC(C)C1` (stereo not drawn) [Example 10, 1α,3β,5β-(1-Ethylaminomethyl-3,5-dimethyl-cyclohexyl)-acetic acid hydrochloride salt], 121 µM; that for `C[C@@H]1C[C@H](C)C[C@](CNCc2ccccc2)(CC(=O)O)C1` [Example 11, 1α,3β,5β-(1-Benzylamino-methyl)-3,5-dimethyl-cyclohexyl]-acetic acid; hydrochloride salt], 1390 µM.
With `CC1CC(C)CC(CC(=O)O)(CN(C)C)C1` (stereo not drawn) [Example 12, 1α,3β,5β-(1-Dimethylaminomethyl-3,5-dimethyl-cyclohexyl)-acetic acid; hydrochloride salt], the IC50 turned out to be 1490 µM.
Same read-out and setting: the result for `CCCCNC[C@@]1(CC(=O)O)C[C@H](C)C[C@H](C)C1` [Example 13, 1α,3β,5β-(1-Butylaminomethyl-3,5-dimethyl-cyclohexyl)-acetic acid; hydrochloride salt] reads > 10000 µM; that for `C[C@@H]1C[C@H](C)C[C@@](CC(=O)O)(CN(C)Cc2ccccc2)C1` [Example 14, 1α,3β,5β-{1-[(Benzyl-methyl-amino)-methyl]-3,5-dimethylcyclohexyl}-acetic acid; hydrochloride salt], 8590 µM; that for `CNC[C@@]1(CC(=O)O)C[C@H](C)C[C@H](C)C1` [Example 15, 1α,3β,5β-(3,5-Dimethyl-1-methylaminomethyl-cyclohexyl)-acetic acid; hydrochloride salt], 82 µM.
`CC(=O)NC[C@@]1(CC(=O)O)C[C@H](C)C[C@H](C)C1` [Example 16, 1α,3β,5β-[1-(Acetylamino-methyl)-3,5-dimethyl-cyclohexyl]-acetic acid]: the IC50 amounted to 1320 µM.
Still for that read-out and setting: the result for `CC(C)CNC[C@@]1(CC(=O)O)C[C@H](C)C[C@H](C)C1` [Example 17, 1α,3β,5β-(1-(Isobutylamino-methyl)-3,5-dimethyl-cyclohexyl]-acetic acid hydrochloride salt] reads > 10000 µM; that for `O=C(O)CC1(CNC2CCC2)CCCCC1` [Example 20, hydrochloride salt], 469 µM; that for `CC(C)NC[C@@]1(CC(=O)O)C[C@H](C)C[C@H](C)C1` [Example 21, 1α,3β,5β-(1-(Isopropylamino-methyl)-3,5-dimethyl-cyclohexyl]-acetic acid hydrochloride salt], 169 µM.
For the compound `NCC1(CC(=O)O)CCCCC1` [Example 22, 1-Aminomethyl-1-cyclohexane-acetic acid], the concentration for half-maximal inhibition (IC50) turned out to be 389 µM.
As for `NCC1(CC(=O)O)CCCC1` [Example 23, 1-Aminomethyl-1-cyclopentane-acetic acid], the IC50 worked out at 2120 µM.
As to `NCC1(CC(=O)O)CCCC1` [Example 24, Sodium salt of 1-aminomethyl-1-cyclopentane-acetic acid], the IC50 came to 942 µM.
Take `O=C(O)CC1(CO)CCCCC1` [Example 25, Sodium salt of 1-(hydroxymethyl)cyclohexane-acetic acid]: the 50% inhibitory concentration (IC50) was 170 µM.
As to `CCC(C)CNCC1(CC(=O)O)CCCCC1` (stereo not shown) [Example 26, {1-[(2-Methyl-butylamino)-methyl]-cyclohexyl}-acetic acid; hydrochloride salt], the IC50 was determined as 8590 µM.
With `O=C(O)CC1(CNCCCC(F)(F)F)CCCCC1` [Example 27, {1-[(4,4,4-Trifluoro-butylamino)-methyl]-cyclohexyl}-acetic acid; hydrochloride salt], the IC50 stood at 1550 µM.
`CCNCC1(CC(=O)O)CCCCC1` [Example 28, (1-Ethylaminomethyl-cyclohexyl)-acetic acid hydrochloride salt]: the concentration for half-maximal inhibition (IC50) came to 181 µM.
Regarding `O=C(O)CC1(CNCC2CC2)CCCCC1` [Example 29, {1-[(Cyclopropylmethyl-amino)-methyl]-cyclohexyl}-acetic acid hydrochloride salt], the IC50 turned out to be 391 µM.
As to `CC(CO)NCC1(CC(=O)O)CCCCC1` (stereo not shown) [Example 30, {1-[(2-Hydroxy-1-methyl-ethylamino)-methyl]-cyclohexyl}-acetic acid hydrochloride salt], the IC50 worked out at 2250 µM.
Regarding `CC(C)CNCC1(CC(=O)O)CCCCC1` [Example 31, [1-(Isobutylamino-methyl)-cyclohexyl]-acetic acid hydrochloride salt], the IC50 stood at 908 µM.
Consider `CCCNCC1(CC(=O)O)CCCCC1` [Example 32, (1-Propylaminomethyl-cyclohexyl)-acetic acid hydrochloride salt], for which the IC50 is 243 µM.
As for `CC(C)NCC1(CC(=O)O)CCCCC1` [Example 33, [1-(Isopropylamino-methyl)-cyclohexyl]-acetic acid hydrochloride salt], the IC50 is 1020 µM.
For `O=C(O)CC1(CNC2CCCCC2)CCCCC1` [Example 34, (1-Cyclohexylaminomethyl-cyclohexyl)-acetic acid hydrochloride salt], the IC50 turned out to be 3220 µM.
For `O=C(O)CC1(CNCc2ccccc2)CCCCC1` [Example 35, [1-(Benzylamino-methyl)-cyclohexyl]-acetic acid hydrochloride salt], the IC50 is 1770 µM.
In the case of `O=C(O)CC1(CNCC2CCCC2)CCCCC1` [Example 37, {1-[Cyclopentylmethyl-amino)-methyl]-cyclohexyl}-acetic acid; hydrochloric salt], the IC50 worked out at 1190 µM.
With `O=C(O)CC1(CNCC2CCCCC2)CCCCC1` [Example 38, {1-[(Cyclohexylmethyl-amino)-methyl]-cyclohexyl}-acetic acid; hydrochloric salt], the IC50 was found to be 2620 µM.
`CC(C)(C)OC(=O)NCC1(CC(=O)O)CCCCC1` [Example 39, [1-(tert-Butoxycarbonylamino-methyl)-cyclohexyl]-acetic acid]: the IC50 was 933 µM.
On the same count and under the same terms, the result for `CC(=O)NCC1(CC(=O)O)CCCCC1` [Example 40, [1-(Acetylamino-methyl)-cyclohexyl]-acetic acid] reads 3800 µM; that for `C[C@@H]1C[C@H](C)CC(CNC2CCC2)(CC(=O)O)C1` (stereo partly drawn) [Example 41, ((3R, 5S)-1-Cyclobutylaminomethyl-3,5-dimethyl-cyclohexyl)-acetic acid; hydrochloride salt], 363 µM.

The same test, now with this note: rBCATc IC50, 25 µM [14C] L-leucine, 10 mM 2-oxoglutarate, pH 8.3, 10 min, 22 °C.
On to `CC1CCCCC1(CN)CC(=O)O` (single isomer, unassigned) [Example 2, (1-Aminomethyl-2-methyl-cyclohexyl)-acetic acid hydrochloride], for which the IC50 is 1140 µM.
The compound `CC1(C)CCCC(CN)(CC(=O)O)C1` (stereo not shown) [Example 3, (1-Aminomethyl-3,3-dimethyl-cyclohexyl)-acetic acid hydrochloride] registered an IC50 of 1660 µM.
